A short description of assay [1]: In vitro antagonist activity against U-46,619 induced gel-filtered Platelet (GFP) aggregation at 50 uM; NA=Inactive. The class given is functional.
Assay [2] addresses T1, Proteinase-activated receptor 1 (Homo sapiens, UniProt P25116).
T1 sequence (P25116 whole entry): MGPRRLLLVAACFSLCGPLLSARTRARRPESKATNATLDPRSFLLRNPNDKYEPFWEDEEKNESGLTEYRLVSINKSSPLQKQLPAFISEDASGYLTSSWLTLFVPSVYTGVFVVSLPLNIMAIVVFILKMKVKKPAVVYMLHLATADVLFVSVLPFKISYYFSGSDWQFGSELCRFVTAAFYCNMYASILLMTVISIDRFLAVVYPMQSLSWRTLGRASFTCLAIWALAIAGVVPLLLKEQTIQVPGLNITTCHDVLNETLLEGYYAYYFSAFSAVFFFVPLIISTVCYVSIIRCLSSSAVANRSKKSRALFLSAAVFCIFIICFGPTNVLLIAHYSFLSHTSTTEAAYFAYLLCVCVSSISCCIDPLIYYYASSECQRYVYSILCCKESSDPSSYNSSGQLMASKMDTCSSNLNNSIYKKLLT
As to the kind of experiment: Binding Affinity of ligand against Protease-activated Receptor (PAR-1) using [3H]-s-(p-F-Phe)-homoarginine-L-homoarginine-KY-NH2, 10 nM (Kd= 15 nM).

Assay [3] in a line: Calcium flux by RASMC Calcium mobilization assay at 2.0 nM alpha thrombin. The class given is functional. Also on record: unit not given here.
A short description of assay [4]: In vitro antagonist activity against SFLLRN-NH2 induced gel-filtered platelet (GFP) aggregation at 2 uM. The class given is functional.
The nature of assay [5]: Proliferation by RASMC proliferation assay at 0.8 nM alpha thrombin. Further details: unit not given here; call rule not given here.
Assay [6] is described as follows: In vitro antagonist activity against collagen induced gel-filtered platelet (GFP) aggregation at 3 ug/mL.
The nature of assay [7]: In vitro antagonist activity against U-46,619 induced gel-filtered Platelet (GFP) aggregation at 0.3 uM. The class given is functional.
The target of assay [8] is T1, Proteinase-activated receptor 1. Description: Binding affinity against Protease-activated receptor (PAR-1) using [3H]-s-(p-F-Phe)-homoarginine-L-homoarginine-KY-NH2, 10 nM (Kd= 15 nM).
The nature of assay [9]: Calcium flux by HMVEC Calcium mobilization assay at 2.0 nM alpha thrombin. The class given is functional. Further details: unit not given here. In general terms: Calcium flux is commonly read through the fluorescence of an indicator in the cells.
Assay [10] is described as follows: in vitro antagonist activity against U-46,619 induced gel-filtered Platelet (GFP) aggregation at 0.3 uM. The assay is classed as functional.

With `NCC[C@H](NC(=O)[C@H](Cc1ccc(F)c(F)c1)NC(=O)Nc1ccc2c(CN3CCCC3)nn(Cc3c(Cl)cccc3Cl)c2c1)C(=O)NCc1ccccc1` [RWJ-58259], the IC50 (commonly the midpoint of a concentration-inhibition curve) in assay [1] is “Not Active”; in [2] it was 150 nM; in assay [4] it was 110 nM. Moreover, in [3], the Ca2+ flux turned out to be 0.07. Also, the Proliferation in [5] was 2.3.
On to `COc1ccc(C[C@H](NC(=O)Nc2ccc3c(CNC4CCCC4)cn(Cc4ccc(F)cc4)c3c2)C(=O)N[C@@H](CCCN=C(N)N)C(=O)NCc2ccccc2)cc1`, for which the IC50 amounted to 41400 nM in assay [6], 49100 nM in assay [7], 2200 nM in [4] and 10700 nM in [8].
For `COc1ccc(C[C@H](NC(=O)Nc2ccc3c(CN4CCCC4)cn(Cc4ccc(OC(F)(F)F)cc4)c3c2)C(=O)N[C@@H](CCCN=C(N)N)C(=O)NCc2ccccc2)cc1`, in that order: 24200 nM, 25500 nM, 3200 nM and 2400 nM.
On to `COc1ccc(C[C@H](NC(=O)Nc2ccc3c(CN4CCCC4)cn(Cc4c(Cl)cccc4Cl)c3c2)C(=O)N[C@@H](CCCNC(=N)N)C(=O)NCc2ccccc2)cc1` [RWJ-54003], for which the concentration for half-maximal inhibition (IC50) result was “Not Active” in assay [1], 46300 nM in assay [6], 300 nM in assay [4] and 1300 nM in [8]. Also, the Ca2+ flux in assay [3] worked out at 0.93; in [9] it was 0.33. This compound also returned a Proliferation in [5] of 7.3.
As for `N=C(N)NCCC[C@H](NC(=O)[C@H](Cc1ccc(F)c(F)c1)NC(=O)Nc1ccc2c(CN3CCCC3)cn(Cc3c(Cl)cccc3Cl)c2c1)C(=O)NCc1ccccc1`, the half-inhibitory concentration (IC50) result in assay [1] is “Not Active”; in assay [4] it was 180 nM; in [8], 820 nM. Moreover, the Ca2+ flux stood at 0.13 in [3] and 0.09 in assay [9]. The Proliferation in [5] stood at 2.4.
`N=C(N)NCCC[C@H](NC(=O)[C@H](Cc1ccccc1)NC(=O)Nc1ccc2c(CN3CCCC3)cn(Cc3ccc(F)cc3)c2c1)C(=O)NCc1ccccc1`: the figures for the IC50 in [6], in assay [4] and in [8] were 12700 nM, 300 nM and 700 nM, respectively.
For `N=C(N)NCCC[C@H](NC(=O)[C@H](Cc1ccc(F)c(F)c1)NC(=O)Nc1ccc2c(CN3CCCC3)cn(Cc3c(Cl)cccc3Cl)c2c1)C(=O)NCc1ccncc1`, the Ca2+ flux is 0.21 in assay [3] and 0.17 in assay [9]. The half-inhibitory concentration (IC50) in assay [4] came out at 360 nM; in assay [8], 40 nM; in [10], 13300 nM. Moreover, the Proliferation in assay [5] was 6.5.
On to `COc1ccc(C[C@H](NC(=O)Nc2ccc3c(CN4CCCC4)cn(Cc4ccc(F)cc4)c3c2)C(=O)N[C@@H](CCCN=C(N)N)C(=O)NCc2ccccc2)cc1`, for which the IC50 result in assay [1] was “Not Active”; in assay [4], 270 nM; in [8], 2200 nM. Besides, the Ca2+ flux in assay [3] was found to be 7.8; in [9], 0.54. The same compound came in with a Proliferation in [5] greater than 30.

(Values after ChEMBL document CHEMBL1134380, “Discovery and optimization of a novel series of thrombin receptor (par-1) antagonists: potent, selective peptide mimetics based on indole and indazole templates” (J Med Chem, 2001).)
